Key:
[1] = target: T1, Lysosomal acid glucosylceramidase (Homo sapiens) (UniProt P04062); assay: Inhibition of human recombinant lysosomal GCase at 1 mM using 4-methylumbelliferyl-beta-D-glucopyranoside as substrate preincubated for 45 mins followed by substrate addition and measured after 30 mins by fluorescence spectrophotometric assay relative to control; conditions: time 75.0 min
T1 sequence (whole entry): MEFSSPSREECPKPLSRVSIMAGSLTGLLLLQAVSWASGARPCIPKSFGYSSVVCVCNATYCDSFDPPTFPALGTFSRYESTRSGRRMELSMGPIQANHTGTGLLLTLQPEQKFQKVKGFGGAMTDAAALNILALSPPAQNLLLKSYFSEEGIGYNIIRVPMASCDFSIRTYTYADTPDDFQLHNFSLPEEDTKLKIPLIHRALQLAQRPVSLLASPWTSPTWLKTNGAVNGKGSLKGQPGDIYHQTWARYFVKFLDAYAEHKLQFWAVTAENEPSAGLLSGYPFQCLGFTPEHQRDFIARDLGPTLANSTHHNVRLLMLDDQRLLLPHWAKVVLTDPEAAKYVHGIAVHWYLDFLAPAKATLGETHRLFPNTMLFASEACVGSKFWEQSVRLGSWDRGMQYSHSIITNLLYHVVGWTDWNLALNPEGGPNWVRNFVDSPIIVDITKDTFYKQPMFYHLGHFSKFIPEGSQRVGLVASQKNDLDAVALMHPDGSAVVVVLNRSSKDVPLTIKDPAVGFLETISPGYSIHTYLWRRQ

[2] = target: T2, Alpha-galactosidase A (Homo sapiens) (UniProt P06280); assay: Inhibition of human recombinant lysosomal alpha-GalA at 1 mM using 4-methylumbelliferyl-[…] as substrate preincubated for 45 mins followed by substrate addition and measured after 30 mins by fluorescence spectrophotometric assay relative to control; conditions: time 75.0 min
T2 sequence (whole entry): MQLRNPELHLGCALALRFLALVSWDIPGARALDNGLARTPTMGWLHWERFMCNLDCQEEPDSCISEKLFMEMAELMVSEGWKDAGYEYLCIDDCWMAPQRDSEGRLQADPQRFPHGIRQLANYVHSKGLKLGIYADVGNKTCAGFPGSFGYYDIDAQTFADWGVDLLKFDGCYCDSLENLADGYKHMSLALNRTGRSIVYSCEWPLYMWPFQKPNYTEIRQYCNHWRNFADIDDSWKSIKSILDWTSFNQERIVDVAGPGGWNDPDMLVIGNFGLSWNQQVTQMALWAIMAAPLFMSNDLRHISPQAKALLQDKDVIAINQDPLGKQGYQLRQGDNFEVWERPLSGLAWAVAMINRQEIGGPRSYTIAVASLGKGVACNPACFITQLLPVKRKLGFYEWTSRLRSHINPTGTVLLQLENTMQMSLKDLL

[3] = target: T3, Lysosomal acid glucosylceramidase (Homo sapiens, UniProt P04062); assay: Inhibition of human recombinant lysosomal GCase using 4-methylumbelliferyl-beta-D-glucopyranoside as substrate preincubated for 45 mins followed by substrate addition and measured after 30 mins by fluorescence spectrophotometric assay
T3 sequence (P04062 whole entry): T1 sequence (whole entry)

[4] = target: T3, Lysosomal acid glucosylceramidase; assay: Competitive inhibition of human recombinant lysosomal GCase using 4-methylumbelliferyl-beta-D-glucopyranoside as substrate preincubated for 45 mins followed by substrate addition and measured after 30 mins by fluorescence spectrophotometry based Lineweaver-Burk plot analysis
Alpha-galactosidase A = target: T4, Alpha-galactosidase A (Homo sapiens, UniProt P06280); assay: Inhibition of human recombinant lysosomal alpha-GalA using 4-methylumbelliferyl-[…] as substrate preincubated for 45 mins followed by substrate addition and measured after 30 mins by fluorescence spectrophotometric assay
T4 sequence (P06280 whole entry): T2 sequence (whole entry)

O=C(CCCCC(=O)NC(COCc1cn(C[C@@H]2NC[C@@H](O)[C@H]2O)nn1)(COCc1cn(C[C@@H]2NC[C@@H](O)[C@H]2O)nn1)COCc1cn(C[C@@H]2NC[C@@H](O)[C@H]2O)nn1)NC(COCc1cn(C[C@@H]2NC[C@@H](O)[C@H]2O)nn1)(COCc1cn(C[C@@H]2NC[C@@H](O)[C@H]2O)nn1)COCc1cn(C[C@@H]2NC[C@@H](O)[C@H]2O)nn1
inhibition [1]: < 50%
inhibition [2]: < 50%

O=C(NC(COCc1cn(CCOCCOc2ccc(-c3cn(C[C@@H]4NC[C@@H](O)[C@H]4O)nn3)cc2)nn1)(COCc1cn(CCOCCOc2ccc(-c3cn(C[C@@H]4NC[C@@H](O)[C@H]4O)nn3)cc2)nn1)COCc1cn(CCOCCOc2ccc(-c3cn(C[C@@H]4NC[C@@H](O)[C@H]4O)nn3)cc2)nn1)c1cc(C(=O)NC(COCc2cn(CCOCCOc3ccc(-c4cn(C[C@@H]5NC[C@@H](O)[C@H]5O)nn4)cc3)nn2)(COCc2cn(CCOCCOc3ccc(-c4cn(C[C@@H]5NC[C@@H](O)[C@H]5O)nn4)cc3)nn2)COCc2cn(CCOCCOc3ccc(-c4cn(C[C@@H]5NC[C@@H](O)[C@H]5O)nn4)cc3)nn2)cc(C(=O)NC(COCc2cn(CCOCCOc3ccc(-c4cn(C[C@@H]5NC[C@@H](O)[C@H]5O)nn4)cc3)nn2)(COCc2cn(CCOCCOc3ccc(-c4cn(C[C@@H]5NC[C@@H](O)[C@H]5O)nn4)cc3)nn2)COCc2cn(CCOCCOc3ccc(-c4cn(C[C@@H]5NC[C@@H](O)[C@H]5O)nn4)cc3)nn2)c1
IC50 [3]: 1.1 µM
inhibition [2]: < 50%
Ki [4]: 1.1 µM

NC(COCc1cn(CCOCCOc2ccc(-c3cn(C[C@@H]4NC[C@@H](O)[C@H]4O)nn3)cc2)nn1)(COCc1cn(CCOCCOc2ccc(-c3cn(C[C@@H]4NC[C@@H](O)[C@H]4O)nn3)cc2)nn1)COCc1cn(CCOCCOc2ccc(-c3cn(C[C@@H]4NC[C@@H](O)[C@H]4O)nn3)cc2)nn1
IC50 [3]: 38 µM
inhibition [2]: < 50%
Ki [4]: 55 µM

COc1ccc(-c2cn(C[C@@H]3NC[C@@H](O)[C@H]3O)nn2)cc1
IC50 [3]: 39 µM
inhibition [2]: < 50%
Ki [4]: 55 µM

CCCc1cn(C[C@H]2NC[C@@H](O)[C@H]2O)nn1
inhibition [1]: < 50%
inhibition [2]: < 50%

O=C(CCCCC(=O)NC(COCc1cn(C[C@H]2NC[C@@H](O)[C@H]2O)nn1)(COCc1cn(C[C@H]2NC[C@@H](O)[C@H]2O)nn1)COCc1cn(C[C@H]2NC[C@@H](O)[C@H]2O)nn1)NC(COCc1cn(C[C@H]2NC[C@@H](O)[C@H]2O)nn1)(COCc1cn(C[C@H]2NC[C@@H](O)[C@H]2O)nn1)COCc1cn(C[C@H]2NC[C@@H](O)[C@H]2O)nn1
inhibition [1]: < 50%
IC50 (Alpha-galactosidase A): 416 µM

NC(COCc1cn(CCCc2cn(C[C@@H]3NC[C@@H](O)[C@H]3O)nn2)nn1)(COCc1cn(CCCc2cn(C[C@@H]3NC[C@@H](O)[C@H]3O)nn2)nn1)COCc1cn(CCCc2cn(C[C@@H]3NC[C@@H](O)[C@H]3O)nn2)nn1
IC50 [3]: 725 µM
inhibition [2]: < 50%

CCCc1cn(C[C@@H]2NC[C@@H](O)[C@H]2O)nn1
IC50 [3]: 247 µM
inhibition [2]: < 50%

O=C(NC(COCc1cn(C[C@H]2NC[C@@H](O)[C@H]2O)nn1)(COCc1cn(C[C@H]2NC[C@@H](O)[C@H]2O)nn1)COCc1cn(C[C@H]2NC[C@@H](O)[C@H]2O)nn1)c1cc(C(=O)NC(COCc2cn(C[C@H]3NC[C@@H](O)[C@H]3O)nn2)(COCc2cn(C[C@H]3NC[C@@H](O)[C@H]3O)nn2)COCc2cn(C[C@H]3NC[C@@H](O)[C@H]3O)nn2)cc(C(=O)NC(COCc2cn(C[C@H]3NC[C@@H](O)[C@H]3O)nn2)(COCc2cn(C[C@H]3NC[C@@H](O)[C@H]3O)nn2)COCc2cn(C[C@H]3NC[C@@H](O)[C@H]3O)nn2)c1
inhibition [1]: < 50%
IC50 (Alpha-galactosidase A): 286 µM

O[C@@H]1[C@H](O)CN[C@H]1Cn1cc(CCCn2cc(COCC(COCc3cn(CCCc4cn(C[C@@H]5NC[C@@H](O)[C@H]5O)nn4)nn3)(COCc3cn(CCCc4cn(C[C@@H]5NC[C@@H](O)[C@H]5O)nn4)nn3)COCc3cn(CCCc4cn(C[C@@H]5NC[C@@H](O)[C@H]5O)nn4)nn3)nn2)nn1
IC50 [3]: 168 µM
IC50 (Alpha-galactosidase A): 897 µM

O=C(NC(COCc1cn(CCCc2cn(C[C@@H]3NC[C@@H](O)[C@H]3O)nn2)nn1)(COCc1cn(CCCc2cn(C[C@@H]3NC[C@@H](O)[C@H]3O)nn2)nn1)COCc1cn(CCCc2cn(C[C@@H]3NC[C@@H](O)[C@H]3O)nn2)nn1)c1cc(C(=O)NC(COCc2cn(CCCc3cn(C[C@@H]4NC[C@@H](O)[C@H]4O)nn3)nn2)(COCc2cn(CCCc3cn(C[C@@H]4NC[C@@H](O)[C@H]4O)nn3)nn2)COCc2cn(CCCc3cn(C[C@@H]4NC[C@@H](O)[C@H]4O)nn3)nn2)cc(C(=O)NC(COCc2cn(CCCc3cn(C[C@@H]4NC[C@@H](O)[C@H]4O)nn3)nn2)(COCc2cn(CCCc3cn(C[C@@H]4NC[C@@H](O)[C@H]4O)nn3)nn2)COCc2cn(CCCc3cn(C[C@@H]4NC[C@@H](O)[C@H]4O)nn3)nn2)c1
inhibition [1]: < 50%
inhibition [2]: < 50%

NC(COCc1cn(C[C@@H]2NC[C@@H](O)[C@H]2O)nn1)(COCc1cn(C[C@@H]2NC[C@@H](O)[C@H]2O)nn1)COCc1cn(C[C@@H]2NC[C@@H](O)[C@H]2O)nn1
inhibition [1]: < 50%
inhibition [2]: < 50%

O[C@@H]1[C@H](O)CN[C@@H]1Cn1cc(CCCn2cc(COCC(COCc3cn(CCCc4cn(C[C@H]5NC[C@@H](O)[C@H]5O)nn4)nn3)(COCc3cn(CCCc4cn(C[C@H]5NC[C@@H](O)[C@H]5O)nn4)nn3)COCc3cn(CCCc4cn(C[C@H]5NC[C@@H](O)[C@H]5O)nn4)nn3)nn2)nn1
inhibition [1]: < 50%
IC50 (Alpha-galactosidase A): 142 µM

O=C(CCCCC(=O)NC(COCc1cn(CCCc2cn(C[C@@H]3NC[C@@H](O)[C@H]3O)nn2)nn1)(COCc1cn(CCCc2cn(C[C@@H]3NC[C@@H](O)[C@H]3O)nn2)nn1)COCc1cn(CCCc2cn(C[C@@H]3NC[C@@H](O)[C@H]3O)nn2)nn1)NC(COCc1cn(CCCc2cn(C[C@@H]3NC[C@@H](O)[C@H]3O)nn2)nn1)(COCc1cn(CCCc2cn(C[C@@H]3NC[C@@H](O)[C@H]3O)nn2)nn1)COCc1cn(CCCc2cn(C[C@@H]3NC[C@@H](O)[C@H]3O)nn2)nn1
IC50 [3]: 333 µM
IC50 (Alpha-galactosidase A): 483 µM

NC(COCc1cn(C[C@H]2NC[C@@H](O)[C@H]2O)nn1)(COCc1cn(C[C@H]2NC[C@@H](O)[C@H]2O)nn1)COCc1cn(C[C@H]2NC[C@@H](O)[C@H]2O)nn1
inhibition [1]: < 50%
inhibition [2]: < 50%

O=C(NC(COCc1cn(C[C@@H]2NC[C@@H](O)[C@H]2O)nn1)(COCc1cn(C[C@@H]2NC[C@@H](O)[C@H]2O)nn1)COCc1cn(C[C@@H]2NC[C@@H](O)[C@H]2O)nn1)c1cc(C(=O)NC(COCc2cn(C[C@@H]3NC[C@@H](O)[C@H]3O)nn2)(COCc2cn(C[C@@H]3NC[C@@H](O)[C@H]3O)nn2)COCc2cn(C[C@@H]3NC[C@@H](O)[C@H]3O)nn2)cc(C(=O)NC(COCc2cn(C[C@@H]3NC[C@@H](O)[C@H]3O)nn2)(COCc2cn(C[C@@H]3NC[C@@H](O)[C@H]3O)nn2)COCc2cn(C[C@@H]3NC[C@@H](O)[C@H]3O)nn2)c1
inhibition [1]: < 50%
inhibition [2]: < 50%

COCc1cn(C[C@@H]2NC[C@@H](O)[C@H]2O)nn1
inhibition [1]: < 50%
inhibition [2]: < 50%

COCc1cn(C[C@H]2NC[C@@H](O)[C@H]2O)nn1
inhibition [1]: < 50%
inhibition [2]: < 50%

NC(COCc1cn(CCCc2cn(C[C@H]3NC[C@@H](O)[C@H]3O)nn2)nn1)(COCc1cn(CCCc2cn(C[C@H]3NC[C@@H](O)[C@H]3O)nn2)nn1)COCc1cn(CCCc2cn(C[C@H]3NC[C@@H](O)[C@H]3O)nn2)nn1
inhibition [1]: < 50%
IC50 (Alpha-galactosidase A): 309 µM
